This series is described as follows: Nanoparticle size by light scattering and scanning electron microscopy. As to conditions: 0.5% (w/v), 5 mg/ml glyburide in 70% ethanol and 30% chloroform by weight; water added until clouding. Format: physicochemical. How it is done: A 0.5% (w/v) mixture of 5 mg/ml of glyburide in 70% ethanol and 30% chloroform by weight is prepared. To this mixture, water is added until clouding is observed at which point the emulsion has formed. Light scattering and scanning electron microscopy show the resulting nanoparticle size is on average about 500 nm. A few large nanoparticles may be observed of up to 1 to 3 μm.

With `COc1ccc(Cl)cc1C(=O)NCCc1ccc(S(=O)(=O)NC(=O)NC2CCCCC2)cc1` [glyburide], the “resulting nanoparticle size, on average” value was “about 500 nm”.

(Values after patent US20070098802A1, “Organic nanoparticles and associated methods” (priority 2005, published 2007).)
